In one series the target is T1, Src (p60^c-src) (Homo sapiens, UniProt P12931).
T1 construct: purchased Upstate (UBI)
The series is described as follows: SRC-Inhibitor-Assay, time-resolved fluorescence kinase assay (Src). In kind it is biochemical. The following applies: ATP 5 μM, enzyme 2.5 U/ml, pre-incubation 15 min at 15° C. The method, then: (§1) The activity of the compounds according to this invention as inhibitors for the src-family tyrosine kinases was shown by using the following assay.
(§2) SRC-Inhibitor-Assay Parameters:
(§3) Assay buffer: 4 mM MgCl2 • 2 mM TCEP • 50 mM HEPES • 0,1% Tween 20 • pH 7.3
(§4) Material: Eu-labelled phosphotyrosine antibody:—for Lck Cisbio Mab PT66-K, for Src EG&G Wallac PT66 Eu-W1024 (all commercially available). Peptides: Ro: NH2-A-E-E-E-I-Y-G-E-F-E-A-K-K-K-K-CONH2, and Ja133-Ro: Ja133-G-Aminocaprylic acid-A-E-E-E-I-Y-G-E-F-E-A-K-K-K-K-CONH2, wherein Ja133 is LightCycler-Red 640-N-hydroxy succinimide ester; whereby both peptides were synthesized by an optimized solid phase peptide synthesis protocol (Merrifield, Fed. Proc. Fed. Amer. Soc. Exp. Biol. 21 (1962) 412) on a Zinsser SMP350 peptide synthesizer. Shortly, the peptide was assembled on 160 mg (22.8 μmol scale) of a Rink-Linker modified polystyrene solid phase by repeatedly conjugating an twenty fold excess of amino acids each protected by temporary piperidine labile Fmoc- and permanent acid labile tert-Bu-, BOC— and Otert-Bu-groups depending on the side chain function. The substrate sequence AEEEIYGEFEAKKKK was N-terminal additionally mounted with the spacer amino acids Aminocaprylic acid and Glycin. After cleavage of the N-terminal temporary protecting group the still attached and protected peptide was labeled with a 1.5 fold amount of LightCycler-Red 640-N-hydroxy succinimide ester (purchased by Roche Diagnostics GmbH) and triethylamine. After 3 hrs. the resin was washed with Dimethylformamide and Isopropanol until the eluates of the blue resin got colourless. […] The substrate was finally isolated by a preparative reverse phase HPLC purification. The purification yielded 12.2 mg RP-HPLC single peak pure blue material (lyophilisate). The identity was proven by MALDI mass spectroscopy [2720.0]. Enzymes: Upstate Lck (p56^lck, active), Upstate Src (p60^c-src, partially purified) were purchased from UBI. Time-resolved Fluorescence Assay: Reader: Perkin Elmer, Wallac Viktor 1420-040 multilabel counter; Liquid handling system: Beckman Coulter, Biomek 2000. ATP, Tween 20, HEPES were purchased from Roche Molecular Biochemicals, MgCl2 and MnCl2 were purchased from Merck Eurolab, TCEP was purchased from Pierce, 384 Well low volume fluorescence plates was purchased from Falcon. Assay Description:
(§5) At first the enzyme is pre-incubated for 15 min. at 15° C. in aqueous solution with corresponding amounts of inhibitors according to this invention. Then the phosphorylation reaction is started by adding a reaction mixture, containing ATP, Peptide and PT66, and subsequent shaking. The proceeding of this reaction is immediately monitored using time resolved fluorescence spectroscopy in a suitable well plate reader.
(§6) The IC50-values can be obtained from the reaction rates by using a non-linear curve fit (Excelfit).

The next series concerns the target T2, Lck (p56^lck) (Homo sapiens, UniProt P06239).
T2 construct: purchased Upstate (UBI)
The series is described as follows: SRC-Inhibitor-Assay, time-resolved fluorescence kinase assay (Lck). The note with it: ATP 5 μM, enzyme 2.5 U/ml, pre-incubation 15 min at 15° C. It counts as biochemical. The method, then: as §1, §2, §3, §4, §5, §6

A short description of series [1]: Pharmacokinetic study in mice, plasma levels after single p.o. dose. In kind it is in vivo. The following applies: male NMRI mice, p.o. single dose 30 mg/kg as micro-suspension, dose-normalised. How it is done: A preferred pharmaceutical preparation was obtained by using the following procedure: • 1. Weigh 4.0 g glass beads in custom made tube GL 25, 4 cm (the beads fill half of the tube). • 2. Add 50 mg compound, disperse with spatulum and vortex. • 3. Add 2 ml gelatin solution (weight beads: gelatin solution=2:1) and vortex. • 4. Cap and wrap in aluminium foil for light protection. • 5. Prepare a counter balance for the mill. • 6. Mill for 4 hours, 20/s in a Retsch mill (for some substances up to 24 hours at 30/s). • 7. Extract suspension from beads with two layers of filter (100 μm) on a filter holder, coupled to a recipient vial by centrifugation at 400 g for 2 min. • 8. Move extract to measuring cylinder. • 9. Repeat washing with small volumes (here 1 ml steps) until final volume is reached or extract is clear. • 10. Fill up to final volume with gelatin and homogenise.
The above described preparation yields micro-suspensions of the compounds of formula I with particle sizes between 1 and 10 μm. The suspensions are suitable for oral applications and were used in the in vivo pharmacokinetic testings described below.
To male NMRI mice of 29–35 g body weight the compounds according to this invention were given p.o. as micro-suspensions (7.5% modified gelatine and 0.22% NaCl) in doses of 30 mg/kg (Drug concentration: 3 mg/mL. Administered volume: 10 mL/kg) and as single dose administration. Study Protocol:
Animals were fasted overnight up to 4 hrs. after administration of the compound. For each single p.o. dose the mice were allocated to 3 groups with 4 animals each. Blood samples are taken from group 1 at 0.5, 3 and 24 hours, from group 2 at 1 and 6 hours, and from group 3 at 2 and 8 hours.
Blood samples of about 200 μl were obtained by retro-orbital puncture. Plasma samples were obtained from heparinized/EDTA blood by centrifugation at room temperature, and stored frozen at −20° C. until analysis.
Plasma was deproteinated and subsequently analysed for plasma levels of the compound by a compound specific HPLC-MS method. WinNonlin™ was used to calculate the pharmacokinetic parameters.

Read-outs that look alike come from different tables or passages of the source.

T2 sequence (P06239 whole entry, species assumed): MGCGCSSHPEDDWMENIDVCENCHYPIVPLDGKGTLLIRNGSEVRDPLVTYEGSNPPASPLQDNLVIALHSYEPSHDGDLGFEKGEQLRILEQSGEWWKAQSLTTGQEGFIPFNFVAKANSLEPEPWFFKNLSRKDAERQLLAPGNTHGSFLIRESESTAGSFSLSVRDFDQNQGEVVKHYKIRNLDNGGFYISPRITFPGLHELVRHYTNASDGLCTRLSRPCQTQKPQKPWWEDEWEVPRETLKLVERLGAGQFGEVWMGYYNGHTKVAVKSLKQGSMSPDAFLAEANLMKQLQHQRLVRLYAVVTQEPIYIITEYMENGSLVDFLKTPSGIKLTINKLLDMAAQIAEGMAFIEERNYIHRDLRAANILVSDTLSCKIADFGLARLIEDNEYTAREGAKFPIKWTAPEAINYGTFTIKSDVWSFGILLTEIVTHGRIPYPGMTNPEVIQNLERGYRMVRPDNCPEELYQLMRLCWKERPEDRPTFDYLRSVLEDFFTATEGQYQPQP
T1 sequence (P12931 whole entry): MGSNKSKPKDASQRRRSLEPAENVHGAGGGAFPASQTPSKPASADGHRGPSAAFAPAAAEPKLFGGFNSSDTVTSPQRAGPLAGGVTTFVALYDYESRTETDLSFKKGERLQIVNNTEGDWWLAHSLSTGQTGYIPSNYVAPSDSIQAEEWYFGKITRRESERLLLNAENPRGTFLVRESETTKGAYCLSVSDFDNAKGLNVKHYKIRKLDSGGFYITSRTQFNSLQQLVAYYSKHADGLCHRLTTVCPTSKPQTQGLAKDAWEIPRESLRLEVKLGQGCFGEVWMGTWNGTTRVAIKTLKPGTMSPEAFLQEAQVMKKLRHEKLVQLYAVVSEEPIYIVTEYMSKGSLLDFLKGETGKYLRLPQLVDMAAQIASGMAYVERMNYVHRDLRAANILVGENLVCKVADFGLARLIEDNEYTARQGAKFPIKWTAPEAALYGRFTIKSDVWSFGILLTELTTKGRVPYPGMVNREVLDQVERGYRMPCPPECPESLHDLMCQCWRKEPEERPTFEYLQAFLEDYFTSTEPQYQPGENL

Regarding `CN1C(=O)N(c2ccccc2Br)Cc2cnc(Nc3ccc4c(c3)OCC(CO)O4)nc21` (centres unmarked) [Example 1, 3-(2-bromo-phenyl)-7-(2-hydroxymethyl-2,3-dihydro-benzo[1,4]dioxin-6-ylamino)-1-methyl-3,4-dihydro-1H-pyrimido[4,5-d]pyrimidin-2-one], the melting point was in the range of 156 to 158 °C. For the same compound, at Src (p60^c-src) (read-out: IC 50 (src)), the IC50 is 7.5 nM. For the same compound, the IC50 on Lck (p56^lck) (read-out: IC 50 (lck)) is 6.3 nM. The “AUC = area under the curve from T = 0 to T = 24 hrs” value (“AUC = area under the curve” for short) in series [1] is given as 379 (h * ng/ml))/(mg/kg).
On to `CC(=O)N1CCC2(CC1)Oc1ccc(Nc3ncc4c(n3)N(C)C(=O)N(c3ccccc3Br)C4)cc1O2` [Example 6, 3-(2-bromo-phenyl)-3,4-dihydro-7-(1′-acetyl-spiro[1,3-benzodioxolo-2,4′-piperidine]-5-yl)amino-1-methyl-pyrimido[4,5-d]pyrimidin-2(1H)-one], for which the “AUC = area under the curve” value in series [1] is 315 (h * ng/ml))/(mg/kg).
On to `CN1C(=O)N(c2ccccc2Br)Cc2cnc(Nc3ccc4c(c3)OC3(CCNCC3)O4)nc21` [Example 7, 3-(2-bromo-phenyl)-3,4-dihydro-7-(spiro[1,3-benzodioxolo-2,4′-piperidine]-5-yl)amino-1-methyl-pyrimido[4,5-d]pyrimidin-2(1H)-one], for which the IC50 at Src (p60^c-src) (IC 50 (src)) was 2 nM; at Lck (p56^lck) (IC 50 (lck)), 2.4 nM. For the same compound, in series [1], the “AUC = area under the curve” value is recorded as 813 (h * ng/ml))/(mg/kg).
The compound `CN1C(=O)CSc2cc(Nc3ncc4c(n3)N(C)C(=O)N(c3c(F)cccc3Br)C4)ccc21` [Example 13-12, 3-(2-bromo-6-fluoro-phenyl)-1-methyl-7-(4-methyl-3-oxo-3,4-dihydro-2H-benzo[1,4]thiazin-7-ylamino)-3,4-dihydro-1H-pyrimido[4,5-d]pyrimidin-2-one] had a melting point of 145 to 149 °C. In addition, at Src (p60^c-src) (read-out: IC 50 (src)), the IC50 worked out at 4.2 nM. The IC50 at Lck (p56^lck) (read-out: IC 50 (lck)) is 14 nM. Besides, the “AUC = area under the curve” value in series [1] is on record as 592 (h * ng/ml))/(mg/kg).
Take `CN1C(=O)N(c2ccccc2Br)Cc2cnc(Nc3ccc4c(c3)OCC(CN3CCCC3)O4)nc21` (centres unmarked) [Example 13-21, 3-(2-bromo-phenyl)-1-methyl-7-(2-pyrrolidin-1-ylmethyl-2,3-dihydro-benzo[1,4]dioxin-6-ylamino)-3,4-dihydro-1H-pyrimido[4,5-d]pyrimidin-2-one]: the melting point was in the range of 201 to 203 °C. In addition, the “AUC = area under the curve” value in series [1] was 120 (h * ng/ml))/(mg/kg).
In turn, `CN1CCS(=O)(=O)c2cc(Nc3ncc4c(n3)N(C)C(=O)N(c3ccccc3Br)C4)ccc21` [Example 13-26, 3-(2-bromo-phenyl)-1-methyl-7-(4-methyl-1,1-dioxo-1,2,3,4-tetrahydro-1lambda*6*-benzo[1,4]thiazin-7-ylamino)-3,4-dihydro-1H-pyrimido[4,5-d]pyrimidin-2-one] yielded a melting point of 250 to 251 °C.
Compound `CN1C(=O)N(c2c(F)cccc2Br)Cc2cnc(Nc3ccc4c(c3)OC3(CCNCC3)O4)nc21` [Example 13-46, 3-(2-bromo-6-fluoro-phenyl)-3,4-dihydro-7-(spiro[1,3-benzodioxolo-2,4′-piperidine]-5-yl)amino-1-methyl-pyrimido[4,5-d]pyrimidin-2(1H)-one] registered a melting point of 146 to 153 °C. Also, at Src (p60^c-src) (IC 50 (src)), the IC50 was 2.3 nM. The IC50 on Lck (p56^lck) (IC 50 (lck)) came out at 2.6 nM. Moreover, the “AUC = area under the curve” value in series [1] is given as 234 (h * ng/ml))/(mg/kg).
Turning to `CCN(CC)CCOc1ccc(Nc2ncc3c(n2)N(C)C(=O)N(c2ccccc2Br)C3)cc1` [Reference cpd 43 from WO 00/24744A, 3-(2-bromo-phenyl)-7-[4-(2-diethylamino-ethoxy)-phenylamino]-1-methyl-3,4-dihydro-1H-pyrimido[4,5-d]pyrimidin-2-one, reference compound], the “AUC = area under the curve” value in series [1] was 69.3 (h * ng/ml))/(mg/kg).

The term melting point denotes the temperature of the solid-liquid transition.

Source of the values: patent US7091345B2, “Amino-substituted dihydropyrimido[4,5-D]pyrimidinone derivatives” (Hoffmann-La Roche Inc., priority 2002, dated 2006).
